# Measured values published in US4191780A, “Bromhexine derivatives and process for making same” (priority 1978, dated 1980).
# “Also recorded” adds a separate entry of the source.
# Tests used:
# [1] = Long-term toxicity in rats: hematological parameters; assay type: in vivo, rat; conditions: daily oral Bromhexine 250 mg/kg, IFT 1026 350 mg/kg
# Procedure: The hematological and biochemical values relating to the groups under treament with the above reported doses are shown in Tables Nos. 4 and 5. These values are virtually the same for both treated and control animals.
# Effect of daily oral administration of Bromhexine 250 mg/kg
# and IFT 1026 350 mg/kg on the hematological parameters in […]
# [2] = Eight-day toxicity studies in mice, lethality (i.p.); assay type: in vivo; conditions: for Total number of deaths: 8 days
# From the text: Eight-day toxicity studies of IFT 1026 and Bromhexine in mice.
# [3] = Long-term toxicity in rats: mortality, pathology and general state
# Procedure: Long-term toxicity (16 weeks) of IFT 1026 is tested in comparison to the parent compound (Bromhexine).
# [4] = test system: Pain induced by a physical stimulation; assay: Hot-plate Test (Eddy and Leimbach): pain induced by a physical stimulation; assay type: in vivo, mice; conditions: mouse, 300 mg/kg oral, plate at 57° C.
# Procedure: (§1) Two test methods are used for establishing the action of Bromhexine and IFT 1026 on noci-ceptive stimuli in mice.
# (§2) (b) Pain induced by a physical stimulation according to the hot-plate test technique by Eddy and Leimbach (Eddy, N. B. and Leimbach, O., J. Pharmacol. exp.Ther. 107, 383--1953). The temperature of the plate was kept at 57° C. Groups of 12 mice are treated as described under (a) above. The reaction times are measured 15 min. before treatment (Ro) and 4 times after the administration (every 15 min). Only the maximal response is taken into account (Rmax).
# [5] = Long-term toxicity in rats: organ weights at necropsy; assay type: in vivo; conditions: fresh weight, daily oral 250 mg/kg Bromhexine, 350 mg/kg IFT 1026
# Procedure: Effect of daily oral administration of 250 mg/kg Bromhexine and 350 mg/kg
# organ weights of rats, expressed as grams of fresh weight.
# [6] = Bromsulphtalein (BSP) clearance in rats treated with the lower dose; assay type: in vivo; conditions: 30 min after 50 mg/kg BSP i.v., lower dose of drug
# Procedure: The possibility to use BSP for the diagnosis of lesions in liver parenchyma is well known. Bromsulphtalein (BSP) clearance was made according to Carpi and Parenti (Carpi, C. and M. A. Parenti, Il Farmaco, Ed. Pr. vol. 17, page 45, 1962). Thirty minutes after the i.v. administration of 50 mg/kg BSP to control rats, the mean plasma level of the dyestuff is 80±12 mcg/ml.
# % of rate showing BSP plasma levels greater than 80 mcg/ml
# (control values) and 160 mcg/ml (two-fold control values)
# [7] = Long-term toxicity in rats: biochemical parameters; assay type: in vivo, rat; conditions: daily oral 250 mg/kg Bromhexine, 350 mg/kg IFT 1026
# [8] = test system: Cough elicited by 15% citric acid spray; assay: Antitussive activity in Guinea-pigs, citric acid spray cough; assay type: in vivo; conditions: Cavia porcellus, ip, 0.5 h, intraperitoneal, 30 min. after application, confidence limits P = 0.05
# Procedure: (§3) (6) Antitussive effect in Guinea-pigs and mice
# (§4) Cough is elicited by 15% citric acid spray in both species, according to the method by Harsany et al. (Boll. Chim. Farm. 112, 691, 1973). The effect was tested 1 hour after oral administration and 30 min. after intraperitoneal application of the antitussive agents on mice and Guinea-pigs respectively.
# (§5) ED50 values of the drugs are computed by the method of Litchfield and Wilcoxon (Litchfield, J. T. Jr., and Wilcoxon F., J. Pharmacol. exp. Ther. 96,99--1949).
# [9] = test system: Cough elicited by 15% citric acid spray; assay: Antitussive activity in mice, citric acid spray cough; assay type: in vivo; conditions: Mus musculus, oral, 1 hour after administration, confidence limits P = 0.05
# Procedure: as §3, §4, §5
# [10] = test system: Pain induced by a chemical stimulus; assay: Siegmund Test: pain induced by a chemical stimulus (acetic acid writhing); assay type: in vivo, mice; conditions: mouse, 300 mg/kg oral
# Procedure: as §1
# (§6) (a) Pain induced by a chemical stimulus according to the method of Siegmund (Siegmund E., Cadmier, R., and Lu, G. Proc. Soc. exp. Biol. N.Y. 95, 729--1957). The mice distributed at random into groups of 10 animals, are deprived of solid food for the 18-hour period prior to the test. […] Thirty minutes after treatment the mice are injected i.p. with 0.1 ml/10 g of a 1.5% acetic acid solution. The writhing is recorded for a 20 min. period following this i.p. injection.
# [11] = test system: noci-ceptive stimuli; assay: Study of analgesic action on mice (both tests); assay type: in vivo; conditions: 300 mg/kg oral
# Procedure: as §1, §6, §2
# [12] = Long-term toxicity in rats (16 weeks): mean body weight; assay type: in vivo
# From the text: Effect of daily oral administration of various doses of
# IFT 1026 and Bromhexine on mean body weight of rats.
compound,measurement,setting,value
"COc1ccccc1OCC(=O)Nc1c(Br)cc(Br)cc1CN(C)C1CCCCC1 [IFT 1026, N-(2-guaiacol-glycolyl-amino-3,5-dibromobenzyl)N-cyclohexylmethylamine]","RBC, mean ± SE",[1]; females,817 ± 58 10^6 /ml
same,"WBC, mean ± SE",[1]; females,179 ± 26 10^2 /ml
same,"RBC, mean ± SE",[1]; males,657 ± 60 10^6 /ml
same,"WBC, mean ± SE",[1]; males,140 ± 10 10^2 /ml
same,Number of deaths at day 3,[2]; daily dose 450 mg/k,1
same,Total number of deaths,[2]; daily dose 450 mg/k,1/10
same,Number of deaths at day 2,[2]; daily dose 900 mg/k,1
same,Total number of deaths,[2]; daily dose 900 mg/k,1/10
same,animals that died during the study,"[3]; rat, in vivo",2 animals
same,"changes in general state of health, behaviour, body weight, blood and viscera","[3]; rat, in vivo",no significant changes
same,long-term toxicity in the rats,"[3]; rat, in vivo",weak
same,toxicity compared with Bromhexine (parent compound),"[3]; rats, subacute and long-term administration",less toxic than Bromhexine; also recorded: less toxic than the parent compound
same,"Hot-plate Test (R max/Ro), mean ± SE",[4],1.62 ± 0.26
same,"organ weight, Adrenal glands",[5]; females,4.6 ± 0.1 10^-2 grams
same,"organ weight, Brain",[5]; females,19.4 ± 1 10^-1 grams
same,"organ weight, Heart",[5]; females,7.3 ± 0.8 10^-1 grams
same,"organ weight, Kidneys",[5]; females,18.2 ± 0.4 10^-1 grams
same,"organ weight, Liver",[5]; females,10.1 ± 0.3 grams
same,"organ weight, Lungs",[5]; females,14.2 ± 1.1 10^-1 grams
same,"organ weight, Spleen",[5]; females,6.5 ± 0.2 10^-1 grams
same,"organ weight, Adrenal glands",[5]; males,3.7 ± 0.5 10^-2 grams
same,"organ weight, Brain",[5]; males,13.4 ± 0.4 10^-1 grams
same,"organ weight, Heart",[5]; males,7.1 ± 0.4 10^-1 grams
same,"organ weight, Kidneys",[5]; males,18.3 ± 0.4 10^-1 grams
same,"organ weight, Liver",[5]; males,9.7 ± 0.9 grams
same,"organ weight, Lungs",[5]; males,9.1 ± 0.8 10^-1 grams
same,"organ weight, Spleen",[5]; males,6.3 ± 0.3 10^-1 grams
same,% showing BSP plasma levels >160 mcg/ml,"[6]; X^2 = 0.43, N.S.",5.5%
same,"rats showing BSP plasma levels >160 mcg/ml, number/tested","[6]; X^2 = 0.43, N.S.",1/18
same,% showing BSP plasma levels >80 mcg/ml,"[6]; X^2 = 0.7, N.S.",28%
same,"rats showing BSP plasma levels >80 mcg/ml, number/tested","[6]; X^2 = 0.7, N.S.",5/18
same,"A/G ratio (Albumin/Globulin), mean ± SE",[7]; females,2.6 ± 0.3
same,"BUN, mean ± SE",[7]; females,41.1 ± 2 mg %
same,"GLUCOSE, mean ± SE",[7]; females,85.9 ± 8 mg %
same,"SGOT, mean ± SE",[7]; females,25.1 ± 0.3 Units/ml
same,"SGPT, mean ± SE",[7]; females,13.2 ± 0.4 Units/ml
same,"TOTAL PROTEIN, mean ± SE",[7]; females,30.6 ± 2.4 mg/mL
same,"A/G ratio (Albumin/Globulin), mean ± SE",[7]; males,2.2 ± 0.1
same,"BUN, mean ± SE",[7]; males,39.9 ± 5 mg %
same,"GLUCOSE, mean ± SE",[7]; males,73.7 ± 5 mg %
same,"SGOT, mean ± SE",[7]; males,24.5 ± 0.6 Units/ml
same,"SGPT, mean ± SE",[7]; males,13.1 ± 0.7 Units/ml
same,"TOTAL PROTEIN, mean ± SE",[7]; males,28.2 ± 2.1 mg/mL
same,ED50,[8],189 mg/kg
same,ED50,[9],298 mg/kg
same,"Siegmund Test, number of writhings for a 20 min. period, mean ± SE",[10],34 ± 3
same,Responses to algogenic stimuli,[11],not suppressed
same,"body weight, mean ± SE","[12]; females, 70 mg/kg daily oral, 0 days",125 ± 6 g
same,"body weight, mean ± SE","[12]; females, 70 mg/kg daily oral, 21 days",181 ± 5 g
same,"body weight, mean ± SE","[12]; females, 70 mg/kg daily oral, 45 days",218 ± 2 g
same,"body weight, mean ± SE","[12]; females, 70 mg/kg daily oral, 60 days",242 ± 2 g
same,"body weight, mean ± SE","[12]; females, 350 mg/kg daily oral, 0 days",118 ± 2 g
same,"body weight, mean ± SE","[12]; females, 350 mg/kg daily oral, 21 days",179 ± 5 g
same,"body weight, mean ± SE","[12]; females, 350 mg/kg daily oral, 45 days",225 ± 7 g
same,"body weight, mean ± SE","[12]; females, 350 mg/kg daily oral, 60 days",232 ± 10 g
same,"body weight, mean ± SE","[12]; females, 1400 mg/kg daily oral, 0 days",122 ± 5 g
same,"body weight, mean ± SE","[12]; females, 1400 mg/kg daily oral, 21 days",173 ± 7 g
same,"body weight, mean ± SE","[12]; females, 1400 mg/kg daily oral, 45 days",211 ± 5 g
same,"body weight, mean ± SE","[12]; females, 1400 mg/kg daily oral, 60 days",221 ± 8 g
same,"body weight, mean ± SE","[12]; males, 70 mg/kg daily oral, 0 days",117 ± 7 g
same,"body weight, mean ± SE","[12]; males, 70 mg/kg daily oral, 21 days",220 ± 4 g
same,"body weight, mean ± SE","[12]; males, 70 mg/kg daily oral, 45 days",310 ± 4 g
same,"body weight, mean ± SE","[12]; males, 70 mg/kg daily oral, 60 days",370 ± 6 g
same,"body weight, mean ± SE","[12]; males, 350 mg/kg daily oral, 0 days",123 ± 8 g
same,"body weight, mean ± SE","[12]; males, 350 mg/kg daily oral, 21 days",226 ± 6 g
same,"body weight, mean ± SE","[12]; males, 350 mg/kg daily oral, 45 days",290 ± 7 g
same,"body weight, mean ± SE","[12]; males, 350 mg/kg daily oral, 60 days",368 ± 4 g
same,"body weight, mean ± SE","[12]; males, 1400 mg/kg daily oral, 0 days",121 ± 5 g
same,"body weight, mean ± SE","[12]; males, 1400 mg/kg daily oral, 21 days",222 ± 7 g
same,"body weight, mean ± SE","[12]; males, 1400 mg/kg daily oral, 45 days",295 ± 8 g
same,"body weight, mean ± SE","[12]; males, 1400 mg/kg daily oral, 60 days",365 ± 9 g
same,variations in the body weights versus control group,"[12]; rats, exception: Bromhexine 1000 mg/kg/day",no significant variations
